Data reported in US20090069241A1, “Compositions and Methods for Use of Pigment Epithelial Derived Factor (PEDF) Peptide Fragments” (Yale University, priority 2006, published 2009).

Experiments:
Type in all cases: in vivo, C57/B16 mice
STAT3 = assay: Western blot of phosphorylated STAT3 in retinas after ischemic injury; settings: 48 hours after ischemic injury; control retinas: detected only at 24 hours
Experimental: (§1) Induction of transient retinal ischemia in C57/B16 mice: Animal experiments were conducted in accordance with ARVO guidelines and were approved by the Animal Care and Use Committee of Yale University School of Medicine. Transient retinal ischemia was induced in one eye and the contralateral eye served as control. During the operation and recovery period, animals were placed on water heating pads at 37° C. Eighty-one 10-14 weeks male C57/B16 mice (Charles River Laboratories, Wilmington, Mass., weighing […]) were used in this experiment. To induce retinal ischemia, a previously established technique with some modifications was used (Hughes, 1991, Exp Eye Res. 53(5):573-582; Buchi et al., 1991, Opthalmologica 203 (3): 138-147). Briefly, animals were anesthetized by i.p. injection of a mixture of 100 mg/kg Ketamine+10 mg/kg Xylazine. […]
(§2) The effect of PEDF82-121 on STAT3 and Erk after ischemic injury was examined by Western blot. In control retinas subjected to ischemic injury, phosphorylated STAT3 was detected at 24 hours but not at 1 hour, 4 hours, 12 hours or 48 hours after ischemic injury. […] In control retinas, phosphorylated Erk was detect strongly at 4 hours and 12 hours after ischemic injury but was barely detectable at 24 hours and not detected at 48 hours. […]

Erk = assay: Western blot of phosphorylated Erk in retinas after ischemic injury; settings: 48 hours after ischemic injury; control retinas: not detected at 48 hours
Experimental: as §1, §2

GFAP = GFAP immunocytochemical labeling of Müller glial cells after transient ischemia
Experimental: (§3) Induction of transient retinal ischemia in C57/B16 mice: Animal experiments were conducted in accordance with ARVO guidelines and were approved by the Animal Care and Use Committee of Yale University School of Medicine. Transient retinal ischemia was induced in one eye and the contralateral eye served as control. During the operation and recovery period, animals were placed on water heating pads at 37° C. Eighty-one 10-14 weeks male C57/B16 mice (Charles River Laboratories, Wilmington, Mass., weighing 25-358) were used in this experiment. To induce retinal ischemia, a previously established technique with some modifications was used (Hughes, 1991, Exp Eye Res. 53(5):573-582; Buchi et al., 1991, Opthalmologica 203 (3): 138-147). Briefly, animals were anesthetized by i.p. injection of a mixture of 100 mg/kg Ketamine+10 mg/kg Xylazine. The corneas were topically anesthetized with 0.5% proparacaine hydrochloride (Bausch & Lomb Pharmaceuticals, Inc., Tampa, Fla.), and the pupils dilated with 2.5% phenylephrine (Bausch & Lomb Pharmaceuticals, Inc., Tampa, Fla.). The anterior chambers were cannulated in fully anesthetized animals with a 30-gauge infusion needle connected by PE10 polyethylene tubing and IV set to a physiological saline reservoir. The intraocular pressure (IOP) of the cannulated eye was raised to 120 mmHg for 60 minutes by elevating the saline reservoir. Retinal ischemia was confirmed by direct microscopic observation of whitening of the fundus. The reperfusion was confirmed visually when needle was withdrawn from the anterior chamber. One group of animals was treated with Vetropolycin® ophthalmic ointment (Pharmaderm, Melville, N. Y.) on the ischemic eyes and allowed to recover for 24 hours, 48 hours, 7 days and 14 days before sacrifice. Other groups were kept for intravitreous injections of the PEDF and PEDF peptides.
Intravitreous injection of PEDF, PEDF peptides and encapsulated PEDF peptide: One group of animals remained uninjected to monitor ischemic damage. All other groups received intravitreal injections, which were performed under an ophthalmic microscope. Experimental groups received 1 μl native PEDF protein (1 μg/μl), PEDF82-121 peptide (1 μg/μl), PEDF76-95 peptide (1 μg/μl), PEDF91-110 peptide (1 μg/μl), PEDF106-125 peptide (1 μg/μl) or PLGA PEDF82-121 nanospheres (0.1 mg/μl, less than 1.6 μg PEDF82-121 peptide when fully released) immediately after the end of the transient ischemia. Intravitreous injection was performed with 30-gauge beveled needle attached to PE10 polyethylene tubing and a 10 μl syringe (Hamilton, Reno, Nev.). The injections were performed through the sclera, approximately 1 mm behind the limbus. The needle remained in the vitreous cavity for 30 seconds after injection then gently withdrawn. […]

[1] = tested on: inner retina (INL, IPL, retinal ganglion cell layer); assay: Transient retinal ischemia-reperfusion injury with intravitreous injection; morphometric analysis of inner retina; design: thickness of the INL compared with non-ischemia control / thickness of the IPL compared with non-ischemia control / surviving cells in the RGC layer compared with non-ischemia control: concentration or dose not given beside the values; settings: for surviving cells in the RGC layer compared with non-ischemia control / thickness of the INL compared with non-ischemia control / thickness of the IPL compared with non-ischemia control: single intravitreous injection immediately after ischemia
Experimental: as §3, with “Eighty-one 10-14 weeks male C57/B16 mice (Charles River Laboratories, Wilmington, Mass., weighing 25-358) were used in this experiment. To induce retinal ischemia, a previously established technique with some modifications was used (Hughes, 1991, Exp Eye Res. 53(5):573-582; Buchi et al., 1991, Opthalmologica 203 (3): 138-147).” left out, “The corneas were topically anesthetized with 0.5% proparacaine hydrochloride (Bausch & Lomb Pharmaceuticals, Inc., Tampa, Fla.), and the pupils dilated with 2.5% phenylephrine (Bausch & Lomb Pharmaceuticals, Inc., Tampa, Fla.).” left out
Intravitreous injection of PEDF, PEDF peptides and encapsulated PEDF peptide: One group of animals remained uninjected to monitor ischemic damage. All other groups received intravitreal injections, which were performed under an ophthalmic microscope. […] Intravitreous injection was performed with 30-gauge beveled needle attached to PE10 polyethylene tubing and a 10 μl syringe (Hamilton, Reno, Nev.). The injections were performed through the sclera, approximately 1 mm behind the limbus. The needle remained in the vitreous cavity for 30 seconds after injection then gently withdrawn. Control groups were injected with 1 μl PBS, 1 μl control peptide (1 μg/μl), or blank nanospheres (0.1 mg/μl). […] Vetropolycin® ointment was applied to the injected eyes and animals were allowed to recover for 48 hours or 7 days before sacrifice.
Preparation of retinal tissue: at designated time points, mice were sacrificed by carbon dioxide inhalation followed by, in some cases, cervical dislocation. The eyes were enucleated, fixed in 4% paraformaldehyde for 24 hours, washed with PBS and embedded in paraffin. Five (5) μm thick sections that included the optic nerve were collected. Sections were processed for TUNEL, immunocytochemistry, or histochemical staining with hematoxylin and eosin (Surgipath, Ltd, Richmond, Ill.) using standard methods.
Morphologic and Morphometric Analysis: For each eye, three sections, which included the optic disk and were spaced at least 20 μm apart, were used for morphological analysis. The fields analyzed were 4×250 μm zones sampled from all retinal eccentricities. These zones were 500 μm away from the edge of optic disk or the ora serrata. The average measurement of these 4 zones was used for statistical analysis. The mean thickness of inner nuclear layer (INL) and inner plexiform layer (IPL) was measured using Axiovision3.1 software (Carl Zeiss MicroImaging, Inc., Thornwood, N.Y.). Total surviving cells in the retinal ganglion cell layer at the same locations were counted using light microscopy.
Statistical analysis: Twelve fields per retina were analyzed for each treatment, and a total of 72 fields were used. For statistical analysis, one-way analysis of variance (ANOVA) and Fisher tests were performed; p<0.05 was taken as significant. Data are presented as means and standard deviations.

[2] = 48 hours after ischemia reperfusion

PEDF82-121: residues 82 to 121 of human PEDF, PLSVATALSALSLGAEQRTESIIHRALYYDLISSPDIHGT (SEQ ID NO: 3) ((1)..(40) Residues 82-121 of human PEDF; listed as Homo sapiens)
presence of phosphorylated STAT3 (STAT3): also detected at 48 hours
presence of phosphorylated Erk (Erk): strongly detected at 48 hours
GFAP labeling compared to PBS injections (GFAP; 48 hours after transient ischemia): less GFAP labeling
GFAP staining (GFAP; 7 days after injury): very similar staining
surviving cells in the RGC layer compared with non-ischemia control [1, 2]: 80.1%
thickness of the INL compared with non-ischemia control [1, 2]: 100%
thickness of the IPL compared with non-ischemia control [1, 2]: 100%
protection of the retinal ganglion cell layer (in words) ([1]; 48 hours post ischemia, versus PBS or PEDF136-155): substantial protection
surviving cells in the RGC layer compared with non-ischemia control ([1]; 7 days after injury): 56.8%
thickness of the INL compared with non-ischemia control ([1]; 7 days after injury): 72.8%
thickness of the IPL compared with non-ischemia control ([1]; 7 days after injury): 62.7%
protection of the retinal ganglion cell layer (in words) ([1]; 7 days post ischemia, free single bolus or nanospheres): less
IPL thickness after ischemic injury (in words) ([1]; compared to PBS injected controls, time not stated): maintained the thickness of the IPL
